Measurements: patent US20090232748A1 (ViraTox, L.L.C., priority 2003, published 2009)
Like-named read-outs stand apart in the source and are kept apart here.

Assays:
pH of acid solutions = type: physicochemical; details: at 0.1%
[1] = test system: MDCK (NBL-2)5 (ATCC type CCL-34) cell culture
[2] = test system: CrFK (ATCC type CCL-94) cell culture; experiment: Cytotoxicity of CPC in the FeLV test
Description: (§2) FeLV retrovirus was gown in cell culture to a titer of 6.0 logs/ml.
(§3) Briefly, virus suspensions were exposed to three concentrations of CPC, 0.025%, 0.05%, and 0.10%, for 300 seconds. Untreated virus served as controls. At the end of the exposure, the virus was titrated in CrFK cell culture. Viral titration was accomplished at each test article concentration by seeding 0.1 ml of a serial dilution of treated virus to the CrFK cell culture. Serial dilutions were prepared from 10^−1 to 10^−8 of the original virus concentration, or five million/ml (6.7 log units) and each dilution then placed in each of four wells (replicates) of a 96 well microplate. The inoculated cells (80 μl per well) are then incubated at 37° C. in a CO2 incubator for five days.

[3] = test system: Feline Infectious Peritonitis Type 2 (“FIP Type 2”) corona virus; experiment: Virucidal bioassay: FIP-2 corona virus suspension exposed to test article, then titrated in CrFK cell culture (TCID50, Reed and Muench); type: cell-based, Feline Infectious Peritonitis Type 2 corona virus; details: for FIP-2 Titer / % Reduction / Reduction in Titer: 300 seconds exposure; for FIP-2 Titer: control titer 6.70 logs/ml
Description: (§1) Untreated virus served as controls. […] They were then observed microscopically for CPE inhibition, reporting titers as TCID 50/ml, also expressed as plaque forming units (pfu's). The corrected virus titer (# positives×dilution) is reported in log/ml. Virucidal activity is thus defined as the number of logs reduction of virus titer between the test article and the control (Reed and Muench, Am. J. Hyg. 27:493-497, 1938).

FeLV retrovirus = details: for reduction in the viral titer: 300 seconds, titer 6.0 logs/ml
Description: as §2, §3

CrFK cell culture = experiment: Cell toxicity / cytopathic effect on host cells in the FIP-2 corona virus test; type: cell-based
Description: as §1

[4] = test system: influenza A/Equi 2?Miami 1/63, ATCC VR517; experiment: Virucidal assay: influenza virus exposed to CPC solutions, titrated in MDCK cell culture (Reed and Muench); type: cell-based, Orthomyxoviridie virus (influenza A/Equi 2)

## O=C(O)CC(O)(CC(=O)O)C(=O)O [citric acid]
pH of acid solutions
  pH: 2.3
[1]; acid solution at 0.1%
  cytotoxic: neither solution was cytotoxic

## CCCCCCCCCCCCCCCC[n+]1ccccc1 [CPC, Cetylpyridinium chloride]
[1]; test solutions containing 0.025% CPC and 0.1% citric acid
  cytotoxic affects: no observed cytotoxic affects
[2]; CPC 0.025%
  cytotoxic: not cytotoxic
[2]; CPC 0.05%
  cytotoxic: cytotoxic
[2]; CPC 0.1%
  cytotoxic: cytotoxic
[3]; CPC 0.025%
  FIP-2 Titer: 3.30 logs/ml
[3]; CPC 0.05%
  % Reduction: 99.97%
  Reduction in Titer: >3.20 logs
  FIP-2 Titer: <3.50 logs/ml
[3]; CPC 0.10%
  % Reduction: 99.97%
  Reduction in Titer: >3.20 logs
  FIP-2 Titer: <3.50 logs/ml
FeLV retrovirus; CPC 0.025% in conjunction 0.1% citric acid
  reduction in the viral titer: greater than 3.5 logs/ml
FeLV retrovirus; CPC 0.025% without citric acid
  reduction in the viral titer: greater than 3.5 logs/ml
FeLV retrovirus; all three levels of CPC (0.025%, 0.05%, 0.10%) with or without citric acid at 0.1%
  reduction of the FeLV virus: 100%
CrFK cell culture; 0.025% in solution, five minutes
  adverse cytopathic effects: without adverse cytopathic effects
[4]; 0.025% (weight/volume) CPC with 0.1% citric acid (weight/volume)
  reduction to the virus titers: greater than 3.5 log
[4]; 0.05% (weight/volume) CPC with 0.1% citric acid (weight/volume)
  reduction to the virus titers: greater than 3.5 log

## CC(=O)O [acetic acid]
pH of acid solutions
  pH: 2.3

## Oc1cc(Cl)ccc1Oc1ccc(Cl)cc1Cl [Triclosan, triclosan]
[3]; all three levels (0.025%, 0.05%, 0.10%)
  viral reduction: no viral reduction
CrFK cell culture; three concentrations as employed with CPC (0.025%, 0.05%, 0.10%)
  cellular toxicity: cellular toxicity at all three levels
